Measurements as given in US9670204B2, “Compounds and pharmaceutical compositions thereof for the treatment of inflammatory disorders” (Galapagos NV, priority 2013, dated 2017).

Tests used:
hENPP2 [1] = target: T1, hENPP2 (UniProtKB/SwissProt Q13822) (Homo sapiens (Human), UniProt Q13822); experiment: hENPP2 biochemical assay, LPC as substrate; details: LPC (palmitoyl 16:0) as substrate
Procedure, shortened: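 Human ENPP2 in 50 mM Tris-HCl pH 8.5, 500 mM NaCl, 5 mM KCl, 10 mM CaCl2, 0.1% fatty-acid-free BSA, reacted 30 min at 37 °C with LPC 16:0 (150 µM solution added 1:1). Released choline measured via choline oxidase/peroxidase/TOOS/4-aminoantipyrine quinoneimine dye at 555 nm; IC50 reported.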

hENPP2 [2] = target: T1, hENPP2; experiment: fluorescent hENPP2 biochemical assay, FS-3 as substrate; details: read-out: FS3-IC50
Protocol: Compound IC50 values are determined in a fluorescent hENPP2 (UniProtKB/SwissProt Sequence ref Q13822) biochemical assay using the fluorogenic autotaxin substrate FS-3 as substrate. FS-3 is a doubly labeled analog of LPC wherein the fluorophore is quenched through intramolecular energy transfer. Without hENPP2, the emission of the probe is quenched. If the substrate is hydrolyzed by hENPP2, the emission of the probe is not quenched anymore resulting in a fluorescence increase.
The enzyme is diluted in 50 mM Tris-HCl pH 8.0, 250 mM NaCl, 5 mM KCl, 1 mM MgCl2, 1 mM CaCl2, 0.1% fatty acid free BSA in a total volume of 20 μL. Enzyme mixture is added to compounds and the resulting mixture is incubated for 30 min at room temperature under shaking. The reaction is started by the addition of 20 μL of 0.75 μM FS-3 diluted in the same buffer as described above and the mixture is incubated at 30° C. for 30 min. Fluorescence is read on the Envision (Excitation 485 nm, emission 520 nm).

IC50 (hENPP2 [1]) [nM]	IC50 (hENPP2 [2]) [nM]	Structure (SMILES)
> 1000	0.01 to 100	CCc1nc2ccc(N3CCN(C(=O)OCCO)CC3)cn2c1N(C)c1nc(-c2ccc(F)cc2)cs1 [Compound 43, 2-hydroxyethyl 4-(2-ethyl-3-((4-(4-fluorophenyl)thiazol-2-yl)(methyl)amino)imidazo[1,2-a]pyridin-6-yl)piperazine-1-carboxylate]
> 1000	0.01 to 100	CCc1nc2ccc(N3CCN(C(=O)C4CCNC4)CC3)cn2c1N(C)c1nc(-c2ccc(F)cc2)cs1 (stereo not drawn) [Compound 47, (4-(2-ethyl-3-((4-(4-fluorophenyl)thiazol-2-yl)(methyl)amino)imidazo[1,2-a]pyridin-6-yl)piperazin-1-yl)(pyrrolidin-3-yl)methanone]
> 1000	0.01 to 100	CCc1nc2ccc(N3CCN(C(=O)C4CCN(S(C)(=O)=O)C4)CC3)cn2c1N(C)c1nc(-c2ccc(F)cc2)cs1 (stereo not drawn) [Compound 49, (4-(2-ethyl-3-((4-(4-fluorophenyl)thiazol-2-yl)(methyl)amino)imidazo[1,2-a]pyridin-6-yl)piperazin-1-yl)(1-(methylsulfonyl)pyrrolidin-3-yl) methanone]
500 to 1000	0.01 to 100	CCc1nc2ccc(N3CCN(C(=O)CO)CC3)cn2c1N(C)c1nc(-c2ccc(F)cc2)cs1 [Compound 50, 1-(4-(2-ethyl-3-((4-(4-fluorophenyl)thiazol-2-yl)(methyl)amino)imidazo[1,2-a]pyridin-6-yl)piperazin-1-yl)-2-hydroxyethanone]
> 1000	0.01 to 100	CCC(=O)N1CCN(c2ccc3nc(CC)c(N(C)c4nc(-c5ccc(F)cc5)cs4)n3c2)CC1 [Compound 51, 1-(4-(2-ethyl-3-((4-(4-fluorophenyl)thiazol-2-yl)(methyl)amino)imidazo[1,2-a]pyridin-6-yl)piperazin-1-yl)propan-1-one]
> 1000	0.01 to 100	CCc1nc2ccc(N3CCN(C(=O)CCCO)CC3)cn2c1N(C)c1nc(-c2ccc(F)cc2)cs1 [Compound 52, 1-(4-(2-ethyl-3-((4-(4-fluorophenyl)thiazol-2-yl)(methyl)amino)imidazo[1,2-a]pyridin-6-yl)piperazin-1-yl)-4-hydroxybutan-1-one]
> 1000	0.01 to 100	CCc1nc2ccc(N3CCN(S(=O)(=O)CCCCl)CC3)cn2c1N(C)c1nc(-c2ccc(F)cc2)cs1 [Compound 55, N-(6-(4-(3-chloropropylsulfonyl)piperazin-1-yl)-2-ethylimidazo[1,2-a]pyridin-3-yl)-4-(4-fluorophenyl)-N-methylthiazol-2-amine]
> 1000	0.01 to 100	CCc1nc2ccc(N3CCN(S(=O)(=O)CCCN4CCCC4)CC3)cn2c1N(C)c1nc(-c2ccc(F)cc2)cs1 [Compound 57, N-(2-ethyl-6-(4-(3-(pyrrolidin-1-yl)propylsulfonyl)piperazin-1-yl)imidazo [1,2-a]pyridin-3-yl)-4-(4-fluorophenyl)-N-methylthiazol-2-amine]
> 1000	0.01 to 100	CCc1nc2ccc(N3CCN(S(=O)(=O)CC(=O)OC)CC3)cn2c1N(C)c1nc(-c2ccc(F)cc2)cs1 [Compound 59, methyl 2-(4-(2-ethyl-3-((4-(4-fluorophenyl)thiazol-2-yl)(methyl)amino)imidazo[1,2-a]pyridin-6-yl)piperazin-1-ylsulfonyl)acetate]
> 1000	0.01 to 100	CCc1nc2ccc(N3CCN(S(=O)(=O)CC(=O)O)CC3)cn2c1N(C)c1nc(-c2ccc(F)cc2)cs1 [Compound 60, 2-(4-(2-ethyl-3-((4-(4-fluorophenyl)thiazol-2-yl)(methyl)amino)imidazo[1,2-a]pyridin-6-yl)piperazin-1-ylsulfonyl)acetic acid]
> 1000	0.01 to 100	CCc1nc2ccc(N3CCN(S(=O)(=O)CC(N)=O)CC3)cn2c1N(C)c1nc(-c2ccc(F)cc2)cs1 [Compound 61, 2-(4-(2-ethyl-3-((4-(4-fluorophenyl)thiazol-2-yl)(methyl)amino)imidazo[1,2-a]pyridin-6-yl)piperazin-1-ylsulfonyl)acetamide]
> 1000	0.01 to 100	CCc1nc2ccc(N3CCN(C(=O)OC(C)(C)C)CC3=O)cn2c1N(C)c1nc(-c2ccc(F)cc2)cs1 [Compound 62, 4-(2-Ethyl-3-{[4-(4-fluoro-phenyl)-thiazol-2-yl]-methyl-amino}-imidazo[1,2-a]pyridin-6-yl)-3-oxo-piperazine-1-carboxylic acid tert-butyl est]
> 1000	0.01 to 100	CCc1nc2ccc(N3CCN(C(=O)OC(C)(C)C)CC3=O)cn2c1N(C)c1nc(-c2ccc(Cl)cc2)cs1 [Compound 63, tert-butyl 4-(3-((4-(4-chlorophenyl)thiazol-2-yl)(methyl)amino)-2-ethylimidazo[1,2-a]pyridin-6-yl)-3-oxopiperazine-1-carboxylate]
> 1000	0.01 to 100	CCOC(=O)CN1CCN(c2ccc3nc(CC)c(N(C)c4nc(-c5ccc(F)cc5)cs4)n3c2)C(=O)C1 [Compound 64, ethyl 2-(4-(2-ethyl-3-((4-(4-fluorophenyl)thiazol-2-yl)(methyl)amino)imidazo[1,2-a]pyridin-6-yl)-3-oxopiperazin-1-yl)acetate]
> 1000	0.01 to 100	CCc1nc2ccc(N3CCN(S(C)(=O)=O)CC3=O)cn2c1N(C)c1nc(-c2ccc(F)cc2)cs1 [Compound 65, 1-(2-ethyl-3-((4-(4-fluorophenyl)thiazol-2-yl)(methyl)amino)imidazo[1,2-a]pyridin-6-yl)-4-(methylsulfonyl) piperazin-2-one]
> 1000	0.01 to 100	CCc1nc2ccc(C3=CCN(S(=O)(=O)CCl)CC3)cn2c1N(C)c1nc(-c2ccc(F)cc2)cs1 [Compound 67, N-(6-(1-(chloromethylsulfonyl)-1,2,3,6-tetrahydropyridin-4-yl)-2-ethylimidazo[1,2-a]pyridin-3-yl)-4-(4-fluorophenyl)-N-methylthiazol-2-amine]
> 1000	0.01 to 100	CCc1nc2ccc(C3=CCN(S(C)(=O)=O)C3)cn2c1N(C)c1nc(-c2ccc(Cl)cc2)cs1 [Compound 68, 4-(4-chlorophenyl)-N-(2-ethyl-6-(1-(methylsulfonyl)-2,5-dihydro-1H-pyrrol-3-yl)imidazo[1,2-a]pyridin-3-yl)-N-methylthiazol-2-amine]
> 1000	0.01 to 100	CCc1nc2ccc(C3=CN(S(C)(=O)=O)CCC3)cn2c1N(C)c1nc(-c2ccc(Cl)cc2)cs1 [Compound 69, 4-(4-chlorophenyl)-N-(2-ethyl-6-(1-(methylsulfonyl)-1,4,5,6-tetrahydropyridin-3-yl)imidazo[1,2-a]pyridin-3-yl)-N-methylthiazol-2-amine]
> 1000	0.01 to 100	CCc1nc2ccc(C3=CCN(S(=O)(=O)CCCOC(C)=O)CC3)cn2c1N(C)c1nc(-c2ccc(F)cc2)cs1 [Compound 74, Acetic acid 3-[4-(2-ethyl-3-{[4-(4-fluoro-phenyl)-thiazol-2-yl]-methyl-amino}-imidazo[1,2-a]pyridin-6-yl)-3,6-dihydro-2H-pyridine-1-sulfonyl]-propyl ester]
> 1000	0.01 to 100	CCc1nc2ccc(C3=CCS(=O)(=O)CC3)cn2c1N(C)c1nc(-c2ccc(Cl)cc2)cs1 [Compound 76, 4-(2-ethyl-3-((4-(4-chlorophenyl)thiazol-2-yl)(methyl)amino)imidazo[1,2-a]pyridin-6-yl)-3,6-dihydro-2H-thiopyran 1,1-dioxide]
> 1000	0.01 to 100	CCc1nc2ccc(C3=CCN(S(C)(=O)=O)CC3)cn2c1N(C)c1nc(-c2ccc(F)cc2)c(F)s1 [Compound 77, N-(2-ethyl-6-(1-(methylsulfonyl)-1,2,3,6-tetrahydropyridin-4-yl)imidazo[1,2-a]pyridin-3-yl)-5-fluoro-4-(4-fluorophenyl)-N-methylthiazol-2-amine]
> 1000	0.01 to 100	CCc1nc2ccc(C3CCN(C(=O)OC(C)(C)C)CC3O)cn2c1N(C)c1nc(-c2ccc(F)cc2)cs1 (stereo not drawn) [Compound 78, tert-butyl 4-(2-ethyl-3-((4-(4-fluorophenyl)thiazol-2-yl)(methyl)amino)imidazo[1,2-a]pyridin-6-yl)-3-hydroxypiperidine-1-carboxylate]
> 1000	0.01 to 100	CCc1nc2ccc(C3CCN(S(C)(=O)=O)CC3O)cn2c1N(C)c1nc(-c2ccc(F)cc2)cs1 (stereo not drawn) [Compound 79, 4-(2-ethyl-3-((4-(4-fluorophenyl)thiazol-2-yl)(methyl)amino)imidazo[1,2-a]pyridin-6-yl)-1-(methylsulfonyl) piperidin-3-ol]
> 1000	0.01 to 100	CCc1nc2ccc(C3CCN(S(C)(=O)=O)CC3)cn2c1N(C)c1nc(-c2ccc(C(C)(C)C)cc2)cs1 [Compound 81, 4-(4-tert-butylphenyl)-N-(2-ethyl-6-(1-(methylsulfonyl)piperidin-4-yl)imidazo [1,2-a]pyridin-3-yl)-N-methylthiazol-2-amine]
